Laboratory results published in patent US11596639B2, “Substituted indole Mcl-1 inhibitors” (Vanderbilt University, priority 2016, dated 2023).

Columns and labels:
Mcl-1 = Mcl-1 (Homo sapiens (Human), UniProt Q07820); assay: Fluorescence polarization anisotropy (FPA) competition assay, FITC-Bak or FITC-Bim BH3 peptide; type: binding; details: read-out: Ki for Inhibition of Mcl-1 by FPA assay
[1] = system: H929 human cancer cell lines; assay: Cellular viability / proliferation (Cell TiterGlo, 72 h); type: cell-based; details: Homo sapiens, NCI-H929, 72 h, read-out: GI50 on cellular proliferation of H929 human cancer cell lines, H929 cells, 72 h, Cell TiterGlo, 10% FBS
How it was run: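 Compounds were added as 2-fold serial dilutions from 50 μM (final DMSO <1%) to H929 cells seeded 1,000 per well in 10% FBS medium one day earlier.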

Sequence of Mcl-1 (Q07820 172-327): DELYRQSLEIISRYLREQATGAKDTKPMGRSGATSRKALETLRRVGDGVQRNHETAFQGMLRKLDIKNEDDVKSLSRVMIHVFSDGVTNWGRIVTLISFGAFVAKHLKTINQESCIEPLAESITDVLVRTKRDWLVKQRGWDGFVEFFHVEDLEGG

Row | Compound | Ki (Mcl-1) [nM] | GI50 [1] [nM]
1 | Cc1cc(OCCCc2c3n(c4c(-c5c(C)nn(C)c5C)c(Cl)ccc24)[C@H](C)CN(c2cn(C)c4ccc(C(=O)NCc5ccccn5)cc24)C3=O)cc(C)c1Cl [Example 281, 3-[(4R)-7-chloro-10-[3-(4-chloro-3,5-dimethyl-phenoxy)propyl]-4-methyl-1-oxo-6-(1,3,5-trimethylpyrazol-4-yl)-3,4-dihydropyrazino[1,2-a]indol-2-yl]-1-methyl-N-(2-pyridylmethyl)indole-5-carboxamide] | 2.2 | 1400
2 | Cc1cc(OCCCc2c3n(c4c(-c5c(C)nn(C)c5C)c(Cl)ccc24)[C@H](C)CN(c2cccc4c(C(=O)O)cccc24)C3=O)cc(C)c1Cl [Example 63, (R)-5-(7-Chloro-10-(3-(4-chloro-3,5-dimethylphenoxy)propyl)-4-methyl-1-oxo-6-(1,3,5-trimethyl-1H-pyrazol-4-yl)-3,4-dihydropyrazino[1,2-a]indol-2(1H)-yl)-1-naphthoic acid] | < 1 | 270
3 | Cc1cc(OCCCc2c3n(c4c(-c5c(C)nn(C)c5C)c(Cl)ccc24)[C@H](C)CN(c2cn(C)c4ccc(-c5cccnn5)cc24)C3=O)cc(C)c1Cl [Example 424, (R)-7-Chloro-10-(3-(4-chloro-3,5-dimethylphenoxy)propyl)-4-methyl-2-(1-methyl-5-(pyridazin-3-yl)-1H-indol-3-yl)-6-(1,3,5-trimethyl-1H-pyrazol-4-yl)-3,4-dihydropyrazino[1,2-a]indol-1(2H)-one] | 2.6 | 1300
4 | Cc1cc(OCCCc2c3n(c4c(-c5c(C)ncnc5C)c(Cl)ccc24)[C@H](C)CN(c2cccc4cc(C(N)=O)n(C)c24)C3=O)cc(C)c1Cl [Example 384, (R)-7-(7-Chloro-10-(3-(4-chloro-3,5-dimethylphenoxy)propyl)-6-(4,6-dimethylpyrimidin-5-yl)-4-methyl-1-oxo-3,4-dihydropyrazino[1,2-a]indol-2(1H)-yl)-1-methyl-1H-indole-2-carboxamide] | 6.8 | 910
5 | Cc1cc(OCCCc2c3n(c4c(-c5c(C)nn(C)c5C)c(Cl)ccc24)[C@H](C)CN(c2ccc4c(C(=O)O)cn(C)c4c2)C3=O)cc(C)c1Cl [Example 79, (R)-6-(7-Chloro-10-(3-(4-chloro-3,5-dimethylphenoxy)propyl)-4-methyl-1-oxo-6-(1,3,5-trimethyl-1H-pyrazol-4-yl)-3,4-dihydropyrazino[1,2-a]indol-2(1H)-yl)-1-methyl-1H-indole-3-carboxylic acid] | < 1 | 1500
6 | Cc1cc(OCCCc2c3n(c4c(-c5c(C)nn(C)c5C)c(Cl)ccc24)[C@H](C)CN(c2cccc4c2cc(C(=O)O)n4CCN2CCOCC2)C3=O)cc(C)c1Cl [Example 367, (R)-4-(7-Chloro-10-(3-(4-chloro-3,5-dimethylphenoxy)propyl)-4-methyl-1-oxo-6-(1,3,5-trimethyl-1H-pyrazol-4-yl)-3,4-dihydropyrazino[1,2-a]indol-2(1H)-yl)-1-(2-morpholinoethyl)-1H-indole-2-carboxylic acid] | 1.2 | 400
7 | Cc1cc(N2C[C@@H](C)n3c(c(CCCOc4cc(C)c(Cl)c(C)c4)c4ccc(Cl)c(-c5c(C)nn(C)c5C)c43)C2=O)c2c(c1)c(C(=O)O)cn2C [Example 159, (R)-7-(7-chloro-10-(3-(4-chloro-3,5-dimethylphenoxy)propyl)-4-methyl-1-oxo-6-(1,3,5-trimethyl-1H-pyrazol-4-yl)-3,4-dihydropyrazino[1,2-a]indol-2(1H)-yl)-1,5-dimethyl-1H-indole-3-carboxylic acid] | < 1 | 290
8 | Cc1ccnc(-c2ccc3c(c2)c(N2C[C@@H](C)n4c(c(CCCOc5cc(C)c(Cl)c(C)c5)c5ccc(Cl)c(-c6c(C)nn(C)c6C)c54)C2=O)cn3C)n1 [Example 418, (R)-7-Chloro-10-(3-(4-chloro-3,5-dimethylphenoxy)propyl)-4-methyl-2-(1-methyl-5-(4-methylpyrimidin-2-yl)-1H-indol-3-yl)-6-(1,3,5-trimethyl-1H-pyrazol-4-yl)-3,4-dihydropyrazino[1,2-a]indol-1(2H)-one] | 1.4 | 900
